Measured values: patent US20220386606A1, “SPECIFICALLY SUBSTITUTED 3-PHENYL-5-SPIROCYCLOPENTYL-3-PYRROLIN-2-ONES AND THEIR USE AS HERBICIDES” (Bayer Aktiengesellschaft, priority 2019, published 2022)

How the values were obtained:
ALOMY [1] = assay: Pre-emergence herbicidal action against ALOMY; assay type: in vivo, Alopecurus myosuroides; details: 320 g/ha, scored visually after 3 weeks vs untreated controls
Excerpt: (§1) Seeds of monocotyledonous and dicotyledonous weed plants and crop plants are laid out in sandy loam soil in wood-fiber pots and covered with soil. The compounds of the invention, formulated in the form of wettable powders (WP) or as emulsion concentrates (EC), are then applied to the surface of the covering soil as aqueous suspension or emulsion at a water application rate equating to 600 to 800 L/ha with addition of 0.2% wetting agent.
(§2) After the treatment, the pots are placed in a greenhouse and kept under good growth conditions for the trial plants. The damage to the test plants is scored visually after a test period of 3 weeks by comparison with untreated controls (herbicidal activity in percent (%): 100% activity=the plants have died, 0% activity=like control plants).

AVEFA [2] = assay: Pre-emergence herbicidal action against AVEFA; assay type: in vivo, Avena fatua; details: 320 g/ha, scored visually after 3 weeks vs untreated controls
Excerpt: as §1, §2

DIGSA [3] = assay: Pre-emergence herbicidal action against DIGSA; assay type: in vivo, Digitaria sanguinalis; details: 320 g/ha, scored visually after 3 weeks vs untreated controls
Excerpt: as §1, §2

ECHCG [4] = assay: Pre-emergence herbicidal action against ECHCG; assay type: in vivo, Echinochloa crus-galli; details: 320 g/ha, scored visually after 3 weeks vs untreated controls
Excerpt: as §1, §2

LOLRI [5] = assay: Pre-emergence herbicidal action against LOLRI (Table 8, titled post-emergence at 320 g/ha); assay type: in vivo, Lolium rigidum; details: table stands in the pre-emergence section
Excerpt: as §1, §2

SETVI [6] = assay: Pre-emergence herbicidal action against SETVI; assay type: in vivo, Setaria viridis; details: 320 g/ha, scored visually after 3 weeks vs untreated controls
Excerpt: as §1, §2

AMARE = assay: Pre-emergence herbicidal action against AMARE; assay type: in vivo, Amaranthus retroflexus; details: 320 g/ha
Excerpt: as §1, §2

VIOTR = assay: Pre-emergence herbicidal action against VIOTR; assay type: in vivo, Viola tricolor; details: 320 g/ha
Excerpt: as §1, §2

ALOMY [7] = assay: Post-emergence herbicidal action against ALOMY; assay type: in vivo, Alopecurus myosuroides; details: 80 g/ha, visual assessment after about 3 weeks
Procedure: (§3) Seeds of monocotyledonous and dicotyledonous weed and crop plants are laid out in sandy loam soil in wood-fiber pots, covered with soil and cultivated in a greenhouse under good growth conditions. 2 to 3 weeks after sowing, the test plants are treated at the one-leaf stage. The compounds of the invention, formulated in the form of wettable powders (WP) or as emulsion concentrates (EC), are then sprayed onto the green parts of the plants as aqueous suspension or emulsion at a water application rate equating to 600 to 800 l/ha with addition of 0.2% wetting agent. After the test plants have been left to stand in the greenhouse under optimal growth conditions for about 3 weeks, the action of the preparations is assessed visually in comparison to untreated controls (herbicidal action in percent (%): 100% activity=the plants have died, 0% activity=like control plants).

AVEFA [8] = assay: Post-emergence herbicidal action against AVEFA; assay type: in vivo, Avena fatua; details: 80 g/ha, visual assessment after about 3 weeks
Procedure: as §3

ECHCG [9] = assay: Post-emergence herbicidal action against ECHCG; assay type: in vivo, Echinochloa crus-galli; details: 80 g/ha, visual assessment about 3 weeks after treatment vs untreated controls
Procedure: as §3

LOLRI [10] = assay: Post-emergence herbicidal action against LOLRI; assay type: in vivo, Lolium rigidum; details: 80 g/ha, visual assessment about 3 weeks after treatment vs untreated controls
Procedure: as §3

SETVI [11] = assay: Post-emergence herbicidal action against SETVI; assay type: in vivo, Setaria viridis; details: 80 g/ha, visual assessment about 3 weeks after treatment vs untreated controls
Procedure: as §3

VERPE = assay: Pre-emergence herbicidal action against VERPE; assay type: in vivo, Veronica persica; details: 320 g/ha
Excerpt: as §1, §2

DIGSA [12] = assay: Post-emergence herbicidal action against DIGSA; assay type: in vivo, Digitaria sanguinalis; details: 80 g/ha, visual assessment about 3 weeks after treatment vs untreated controls
Procedure: as §3

| Structure (SMILES) | Pre-emergence action against ALOMY in % (ALOMY [1]) [%] | Pre-emergence action against AVEFA in % (AVEFA [2]) [%] | Pre-emergence action against DIGSA in % (DIGSA [3]) [%] | Pre-emergence action against ECHCG in % (ECHCG [4]) [%] | Pre-emergence herbicidal action against LOLRI in % (LOLRI [5]) [%] | Pre-emergence action against SETVI in % (SETVI [6]) [%] | Pre-emergence action against AMARE in % (AMARE) [%] | Pre-emergence action against VIOTR in % (VIOTR) [%] | Post-emergence action against ALOMY in % (ALOMY [7]) [%] | Post-emergence action against AVEFA in % (AVEFA [8]) [%] | Post-emergence action against ECHCG in % (ECHCG [9]) [%] | Post-emergence action against LOLRI in % (LOLRI [10]) [%] | Post-emergence action against SETVI in % (SETVI [11]) [%] | Pre-emergence action against VERPE in % (VERPE) [%] | Post-emergence action against DIGSA in % (DIGSA [12]) [%] |
| --- | --- | --- | --- | --- | --- | --- | --- | --- | --- | --- | --- | --- | --- | --- | --- |
| CC#Cc1cc(C)c(C2=C(O)C3(CCC(COCCOC)C3)NC2=O)c(OC)c1 (centres unmarked) [Example I-52] | 100 | 100 | 100 | 100 | 100 | 100 | 80 | 80 | 100 | 90 | 100 | 90 | 100 | – | – |
| C=CCOCC1CCC2(C1)NC(=O)C(c1c(F)cc(C#CC)cc1OC)=C2OC(=O)OCC (centres unmarked) [Example P-77] | 100 | 90 | 100 | 100 | 100 | 100 | – | 100 | 90 | – | 100 | – | 100 | 80 | 80 |
| C=CCOCC1CCC2(C1)NC(=O)C(c1c(C)cc(C#CC)cc1Br)=C2OC(=O)OCC (centres unmarked) [Example P-85] | 100 | 80 | 100 | 100 | 100 | 100 | – | 100 | 80 | – | 100 | 90 | 100 | 90 | 90 |
| CC#Cc1cc(C)c(C2=C(OC(=O)C(C)C)C3(CCC(COCC)C3)NC2=O)c(Br)c1 (centres unmarked) [Example P-36] | 100 | 80 | 100 | 90 | 100 | 100 | – | 100 | 100 | – | 90 | – | 100 | 80 | 90 |
| CC#Cc1cc(C)c(C2=C(OC(=O)C(C)C)C3(CCC(COC)C3)NC2=O)c(OC)c1 (centres unmarked) [Example P-46] | 100 | 100 | 100 | 100 | 100 | 100 | 100 | 100 | 100 | 90 | 100 | 100 | 100 | – | 100 |
| CC#Cc1cc(Br)c(C2=C(O)C3(CCC(COCC)C3)NC2=O)c(CC)c1 (centres unmarked) [Example I-24] | – | – | – | – | – | – | – | – | – | – | – | – | – | 80 | – |
| CC#Cc1cc(F)c(C2=C(OC(=O)OCC)C3(CCC(COCC)C3)NC2=O)c(OC)c1 (centres unmarked) [Example P-69] | 100 | 80 | 100 | 100 | 100 | 100 | – | 80 | 100 | 90 | 100 | 90 | 100 | 90 | 80 |
| CC#Cc1cc(C)c(C2=C(OC(=O)OCC)C3(CCC(COCC)C3)NC2=O)c(OC)c1 (centres unmarked) [Example P-48] | 100 | 100 | 100 | 100 | 100 | 100 | – | 100 | 100 | 90 | 100 | 100 | 100 | 80 | 100 |
| CC#Cc1cc(F)c(C2=C(OC(=O)C(C)C)C3(CCC(COCC)C3)NC2=O)c(OC)c1 (centres unmarked) [Example P-67] | 100 | 80 | 100 | 100 | 90 | 100 | 80 | – | 100 | 90 | 100 | 90 | 100 | 80 | – |
| CC#Cc1cc(C)c(C2=C(OC(=O)OCC)C3(CCC(COCCC)C3)NC2=O)c(OC)c1 (centres unmarked) [Example P-83] | 100 | 80 | 100 | 100 | 100 | 100 | – | 90 | 100 | 90 | 100 | 100 | 100 | 80 | 100 |
| CC#Cc1cc(C)c(C2=C(O)C3(CCC(COCC)C3)NC2=O)c(Br)c1 (centres unmarked) [Example I-21] | 100 | 100 | 100 | 100 | 100 | 100 | 100 | 100 | 100 | – | 100 | – | 100 | – | 100 |
| CC#Cc1cc(C)c(C2=C(OC(=O)C(C)C)C3(CCC(COC)C3)NC2=O)c(F)c1 (centres unmarked) [Example P-57] | 100 | 80 | 100 | 100 | 100 | 100 | 80 | 100 | 100 | 90 | 100 | 100 | 100 | – | 100 |
